Assay results taken from PubChem BioAssay AID179 (DTP/NCI, 2004).
“And” between values parts separate entries of the source, which are not always exact repeats. Identical values can stand only once. The source made the active and inactive calls.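 Rule for the calls: active = compounds giving half or more protection of infected cells from virus-caused growth loss, again on retest; inactive = the rest.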 Where a SMILES comes first, the peptide text is derived from it. The star is where a group is joined. Fmoc = O=C(OCC1c2ccccc2-c2ccccc21)*; Boc = CC(C)(C)OC(=O)*; OtBu = CC(C)(C)O*

Test system: CEM cells HIV-1 protection, formazan growth assay
Assay: NCI AIDS Antiviral Assay
Conditions: for IC50: measured here: growth of uninfected CEM cells
Outline: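 Category rules: moderately active means at least 50% protection on retest, and confirmed active means 100% protection reproducibly. The underlying data came from a formazan growth assay in HIV-1-infected CEM cells.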

Row | SMILES | EC50 [µM] | IC50 | outcome
1 | CCCCC(C#N)C(=O)NC(N)=O (stereo unspecified) | > 39.8 | > 39.8 µM | 
2 | C=C1CC(COc2ccc3c(C)c(Cl)c(=O)oc3c2)(c2ccccc2)OC1=O (stereo unspecified) | > 200 | 0.363 µM | 
3 | Cc1cc(C)c(-n2c(-c3ccc(Br)cc3)cs/c2=N\N=C2C=C(C(C)(C)C)C(=O)C(C(C)(C)C)=C2)c(C)c1 | > 2.45 | > 2.45 µM | 
4 | CC1=C(C)CC2(SC1)C(=O)c1ccccc1C2=O |  |  | inactive
5 | COc1ccccc1NC(=O)C1=C(C)NC(C)=C(C(=O)Nc2ccccc2OC)C1c1cccc2c1OCO2 |  |  | inactive
6 | CC(C)OP(=O)(OC(C)C)c1nn(-c2ccc([N+](=O)[O-])cc2)c(=N)s1 | > 129 | 93.3 µM | 
7 | O=C1c2ccccc2C(=O)N1CCS(=O)(=O)CCS(=O)(=O)CCN1C(=O)c2ccccc2C1=O | > 200 | > 200 µM | 
8 | CSC1(CC(=O)N2CCCCC2)C(=O)Nc2ccccc21 (stereo unspecified) | > 200 | > 200 µM | 
9 | CCOC(=O)C1=C(Nc2cccc3ccccc23)OCC1=O |  |  | inactive
10 | O=S(=O)(Nc1nnc2c3ccccc3cnn12)c1ccc(Cl)cc1S | 36.3 | 490 µM | 
11 | O=C1c2ccccc2CCC1(Br)C(Br)c1ccccc1 (stereo unspecified) | > 200 | 5.37 µM | 
12 | COc1cc(/C=C/C(=O)c2ccccc2)cc(OC)c1OC | > 87.1 | 20.4 µM | 
13 | O=C(Nc1ccccn1)Nc1ccccn1 | > 200 | 107 µM | 
14 | CCCC(=O)Oc1ccc2c(C)cc(=O)oc2c1OC(=O)CCC | > 200 | 77.6 µM | 
15 | CC(=O)OC1Sc2ccccc2C(=O)N2CCCC12 (stereo unspecified) | > 200 | > 200 µM | 
16 | Nc1cnn2nnnc2c1Cl | > 200 | > 200 µM | 
17 | CCOC(=O)c1nc2cc(F)cc(F)c2[nH]c1=O | > 200 | 162 µM | 
18 | O=C(O)c1c(O)ccc(N=Nc2ccc(/C=C/c3ccc(N=Nc4ccc(O)c(C(=O)O)c4O)cc3S(=O)(=O)O)c(S(=O)(=O)O)c2)c1O | > 14.5 | > 14.5 µM | 
19 | NC(N)=NCCCC(NC(=O)OCCCCCCn1ccc(N)nc1=O)C(=O)O (stereo unspecified) | > 200 | > 200 µM | 
20 | COC1OC2COc3ccccc3OC2C2C1N2C(N)=O (stereo unspecified) |  |  | inactive
21 | Cc1ccc(CC2(OCCN(C)C)CCC(C(C)(C)C)CC2)cc1 (stereo unspecified) | > 200 | 3.16 µM and 2.95 µM | 
22 | Fc1ccc2c3c([nH]c2c1)CCNC3 | > 200 | > 200 µM | 

Row | SMILES | EC50 [µM] | IC50 | outcome
23 | CC/C(=C(\C#N)c1ccc(OC)cc1)c1ccc(N(C)C)cc1 | > 20 | 0.871 µM | 
24 | O=c1nc(-c2ccccc2)cc(CC(O)(c2ccc(C(F)(F)F)cc2)c2ccc(Cl)c(Cl)c2)[nH]1 (stereo unspecified) | > 20 | > 20 µM | 
25 | N#CC1=C2SCCN2C(=O)C(C#N)C12CCCCC2 (stereo unspecified) | > 200 | > 200 µM | 
26 | Cc1cc(C)cc(NC(=O)CCC(=O)C2CCC/C2=N\NC(=O)C(=O)NN)c1 (stereo unspecified) | > 67.6 | > 67.6 µM | 
27 | COc1ccc2c(c1)C(O)(C(F)(F)F)c1cc(C(=O)C(F)(F)F)c3ccccc3c1N2 (stereo unspecified) | > 6.17 | > 6.17 µM | 
28 | CN(O)C(=O)Cc1ccc(OCc2cccc(Cl)c2)cc1 | > 200 | > 200 µM | 
29 | COc1ccc(N2C(N)=C(C#N)C(C#N)(C#N)C2c2cccc([N+](=O)[O-])c2)cc1 (stereo unspecified) | > 200 | 5.89 µM | 
30 | COc1ccc(/C=C2/C(=O)N(C(=O)c3ccccc3O)N=C2C)cc1 | > 56.2 | 0.0501 µM | 
31 | CCOC(=O)C1C(=S)NC(=O)C1C#N (stereo unspecified) |  |  | inactive
32 | CC(C)(C)OC(=O)CCC(NC(=O)OCC1c2ccccc2-c2ccccc21)C(=O)NC(Cc1c[nH]c2ccccc12)C(=O)NC(CCCCNC(=O)OC(C)(C)C)C(=O)N1CCCC1C(=O)NCC(N)=O (stereo unspecified) (Fmoc-E(OtBu)WK(Boc)PG-NH2; configuration not given here) | > 100 | > 100 µM and 44.7 µM | 
33 | COc1cc(Cc2cc3c(c(C(=O)O)c2Br)OCO3)cc(OC)c1OC | > 200 | 44.7 µM | 
34 | C=C=C(CC(CC(=C)Br)(C(=O)OC)C(=O)OC)S(=O)(=O)c1ccccc1 | > 200 | 1.45 µM | 
35 | CC(=O)O[C@H]1CC[C@@]2(C)[C@H](CC[C@@H]3[C@@H]2CC[C@]2(C)[C@@H]4[C@H](C[C@@H]32)O[C@]2(CC[C@@H](C)CO2)[C@H]4C)C1 | > 200 | > 200 µM | 
36 | CN=C1CN=C(OP(=O)(N2CCOCC2)N2CCOCC2)c2cc(Cl)ccc2N1 | > 6.17 | > 6.17 µM | 
37 | O=C1OC(Cl)(C(Cl)(Cl)Cl)C(=O)OC1(Cl)C(Cl)(Cl)Cl (stereo unspecified) | > 200 | > 200 µM | 
38 | CC(C)C1N2CCCCC2[C@@H]2c3[nH]c4ccccc4c3CCN12 (stereo partly specified) | > 81.3 | > 81.3 µM | 
39 | COc1cc(/C=C/C(C)=O)ccc1OP(=O)(O)O | > 200 | > 200 µM | 
40 | CCOC(=O)NC(=O)c1cn(CCN2CCN(C(=O)CCCCCCCCCCNc3ncnc4c3ncn4C3OC(CO)C(O)C3O)CC2)c(=O)[nH]c1=O (stereo unspecified) |  |  | inactive
41 | c1ccc2cc(CNCCCCNCCCNCc3ccc4ccccc4c3)ccc2c1 | > 200 | 0.257 µM | 
42 | Cc1ccc(NC(=O)CC/C(CC(=O)C(C)(C)C)=N\NC(=O)C[n+]2ccccc2)cc1C | > 75.9 | > 75.9 µM | 
43 | COc1nc(OC)nc(Sc2ccc(Sc3ccc(Sc4nc(OC)nc(OC)n4)cc3)cc2)n1 | > 13.5 | > 13.5 µM | 
44 | CN(C=O)/C=C/c1cc(O)ccc1O |  |  | inactive

Row | SMILES | EC50 [µM] | IC50 | outcome
45 | O=C(NCCCN(CCCCN(CCCNC(=O)C(F)(F)F)Cc1ccccc1)Cc1ccccc1)C(F)(F)F | > 200 | 37.2 µM | 
46 | COc1ccccc1NC(=O)C(=O)C1C(=O)Nc2ccccc2S1=O (stereo unspecified) |  |  | inactive
47 | CC(=O)CC(C)=O.CCN(CC)CC[C-]=O.[Pd+2] | > 200 | 5.89 µM | 
48 | O=c1cc(-c2cccs2)ss1 | 77.6 | 110 µM | 
49 | COc1cc(-c2cc(-c3ccccc3)nc(-c3c(OC)ccc4c(C)cc(=O)oc34)c2)cc(OC)c1OC | > 200 | > 200 µM | 
50 | CCCCON1C[C@@H](O)C(O)[C@@H](O)C1 (stereo partly specified) | > 200 | > 200 µM | 
51 | CCN(CC)CCOC(=O)Cc1cccc2c(=O)cc(-c3ccccc3)oc12 |  |  | inactive
52 | CN(/N=C/C=N/N(C)C1=NCCN1)C1=NCCN1 | > 200 | > 200 µM | 
53 | O=c1[nH]oc(NS(=O)(=O)c2ccccc2)c1C1CCCCC1 | > 200 | 97.7 µM | 
54 | N#CCCN(CCN(CCC#N)C(=O)Nc1ccccc1)C(=O)Nc1ccccc1 | > 200 | > 200 µM | 
55 | C/C(=N\NC(=O)CCSCCC(=O)N/N=C(\C)c1ccc(OS(C)(=O)=O)cc1)c1ccc(OS(C)(=O)=O)cc1 | > 200 | > 200 µM | 
56 | CC(=O)Oc1c(Cl)cc(C(=CCC[C@H]2CC[C@@]3(C)[C@@H](CC[C@@H]4[C@@H]3CC[C@]3(C)[C@@H]([C@H](C)CCCC(C)C)CC[C@@H]43)C2)c2cc(Cl)c(OC(C)=O)c(C(=O)O)c2)cc1C(=O)O | 162 | 174 µM | 
57 | O=C(OC1C(OC(=O)c2cccnc2)C(OC(=O)c2cccnc2)C(OC(=O)c2cccnc2)C(OC(=O)c2cccnc2)C1OC(=O)c1cccnc1)c1cccnc1 (stereo unspecified) | > 200 | > 200 µM | 
58 | Brc1ccccc1/C=C\C1(c2ccccc2)OCCO1 | > 200 | 4.37 µM | 
59 | N#C/C=C/c1cccc(F)c1 | > 49 | > 49 µM | 
60 | O=c1[nH]c(-c2ccccc2)nc2c1sc1nc3ccccc3n12 | > 50.1 | > 50.1 µM | 
61 | O=C(Nc1ccc(NC2=NCCN2)cc1)c1ccc(C(=O)Nc2ccc(NC3=NCCN3)cc2)c([N+](=O)[O-])c1 | > 200 | 15.1 µM | 
62 | COC1(O)c2cccc(Cl)c2C(=O)N1C1(C(N)=O)CCCCC1 (stereo unspecified) |  |  | inactive
63 | CN(C)CC(O)CNC(=O)Nc1ccccc1 (stereo unspecified) | > 200 | > 200 µM | 
64 | O=C1CCCSCCCC(=O)CCCSCCC1 | > 34.7 | > 34.7 µM | 
65 | CCOC(=O)C(Cc1ccc2c(c1)CCC2)(Cc1ccc2c(c1)CCC2)C(=O)OCC | > 200 | 69.2 µM | 
66 | O=C(O)C1=C(O)C(C(=O)O)C23CCCCCCCCCCC12C(C(=O)O)C(O)=C3C(=O)O (stereo unspecified) |  |  | inactive

Row | SMILES | EC50 [µM] | IC50 | outcome
67 | C1=CC2SSSC2C1 (stereo unspecified) | > 251 | > 251 µM | 
68 | Cc1cc(NC(=O)c2ccc(NC(=O)c3ccccc3)cc2)ccc1N=Nc1ccc(N=Nc2ccc3c(O)cc(S(=O)(=O)O)cc3c2)c2cc(S(=O)(=O)O)ccc12 | 6.17 | 50.1 µM | 
69 | CC(C)=NOC(=O)Nc1cccc2c1OCO2 | > 200 | > 200 µM | 
70 | c1ccc2c(c1)nnn2C1CCCCO1 (stereo unspecified) | > 200 | > 200 µM | 
71 | C=C1CCC2C(C)(CO)C(O)CCC2(C)C1C/C=C1/CCOC1=O (stereo unspecified) |  |  | inactive
72 | Nc1cccc2c1C(=O)c1cccc(NC(=O)c3ccc4c5c(nsc35)-c3ccccc3C4=O)c1C2=O | > 15.5 | > 15.5 µM | 
73 | COc1ccccc1NC(=S)Nc1cc(C)cc(C)n1 | > 200 | > 200 µM | 
74 | O=C1[C@H](Cl)[C@H]2c3cc4ccccc4nc3Oc3ccccc3N12 | > 22.4 | > 22.4 µM | 
75 | c1ccc2c(-c3cccc4ccccc34)cccc2c1 | > 200 | > 200 µM | 
76 | N=C1C=CC(=C(c2ccc(N)cc2)c2ccc(N)cc2)C=C1 |  |  | inactive
77 | Cn1nnn2c(-c3ccccc3)nnc12 | > 891 | > 891 µM | 
78 | C[C@H]1S[C@@H](c2ccc(Cl)cc2Cl)N(NC(=O)c2ccncc2)C1=O | > 200 | 74.1 µM | 
79 | CCOC(=O)C(O)(CC1=NC(C(=O)OC)(C(=O)OC)C(c2cccc(C=O)c2)O1)C(=O)OCC (stereo unspecified) | > 200 | > 200 µM | 
80 | CCCCCCCCC(O)C(O)CCCCCCCC(=O)O (stereo unspecified) | > 200 | 53.7 µM | 
81 | CSc1cnc2ccccc2c1Sc1cn(C)c2ccccc2c1=O | > 37.2 | 31.6 µM | 
82 | CCOC(=O)NC(Nc1ccc(F)cc1F)(C(F)(F)F)C(F)(F)F | > 200 | > 200 µM | 
83 | Cc1nc2c(nc1C)C(=O)C(Cl)=CC2=O |  |  | inactive
84 | COc1cc2c(cc1OC)C(CCc1ccc(Cl)cc1)N(C)CC2 (stereo unspecified) | > 200 | 91.2 µM | 
85 | COC(=O)/C(=N/NC(N)=O)C(C(=O)OC)C(=O)C(=O)Nc1ccc(Cl)cc1 (stereo unspecified) |  |  | inactive
86 | COC1(c2ccc(C)cc2C)OC(=O)c2c(C)cccc21 (stereo unspecified) |  |  | inactive
